Reference: paper PMC4514850, “A Novel TGR5 Activator WB403 Promotes GLP-1 Secretion and Preserves Pancreatic β-Cells in Type 2 Diabetic Mice” (PLoS ONE, 2015)

How the values were obtained:
hTGR5 = target: T1, hTGR5 (Homo sapiens, UniProt Q8TDU6); assay: human TGR5 CRE-luciferase assay in co-transfected 293T cells; format: cell-based
T1 construct: expressed in transfected cells; host or cells: 293T cells, transient transfection with pTGR5 (gift from Prof. Johan Auwerx)
T1 sequence (Q8TDU6 1-330): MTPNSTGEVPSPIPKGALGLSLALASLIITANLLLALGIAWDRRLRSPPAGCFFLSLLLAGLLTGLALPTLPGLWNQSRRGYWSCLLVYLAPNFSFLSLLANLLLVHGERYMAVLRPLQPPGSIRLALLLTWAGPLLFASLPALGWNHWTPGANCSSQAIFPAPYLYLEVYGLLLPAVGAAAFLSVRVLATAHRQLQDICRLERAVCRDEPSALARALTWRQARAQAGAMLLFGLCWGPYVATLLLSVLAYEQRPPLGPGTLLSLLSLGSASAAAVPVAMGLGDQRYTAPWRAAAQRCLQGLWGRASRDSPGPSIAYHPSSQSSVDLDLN
Experimental: For human TGR5 luciferase (luc) assay, 293T cells were co-transfected with pCRE-luc, pTGR5 (kind gift from Prof. Johan Auwerx, Ecole Polytechnique Fédérale de Lausanne, Lausanne, Switzerland) and pRenilla (Promega, USA). WB403 was added 5 h later. Cells were harvested after 16 h and subjected to luciferase analysis on Lumistar Optima chemiluminescent detector (BMG labtech, Germany). For cAMP testing, 293T cells transiently transfected with pTGR5 or pGPR119 (GeneCopoeia, USA) were washed by FBS-free DMEM, and stimulated with WB403 in FBS-free DMEM containing 3-isobutyl-1-methyl-xanthine (IBMX, Sigma). Cell lysates were collected 30 min later and used for cAMP ELISA assay. FLIPR Calcium 5 assay kit (Molecular Devices, USA) was used for calcium mobilization assay. 293-GPR40 stable cells (kindly provided by Prof. Naiming Zhou of Zhejiang University, Hanzhou, China) or 293 cells transient transfected with GPR120 were seeded at 50,000 cells per well in black-walled clear-bottomed 96-well plates (Costar). An equal volume of loading buffer containing Fluo 4-AM was added the following day and cells were incubated for 1 h before stimulated with compounds. Increase of the intracellular Ca^2+ concentration was monitored by Flexstation 3 system (Molecular Devices, USA).
(§1) Fig 1 WB403 activated TGR5 and promoted active GLP-1 secretion. (A) WB403 stimulated hTGR5 in CRE-luciferase report system at the concentration range of 1–20 μmol/l. (B) WB403 stimulated hTGR5 specific cAMP accumulation at the concentration range of 1–50 μmol/l. n = 3. **p<0.01, ***p<0.001 vs. DMSO (+TGR5) group. (C) The hTGR5 targeted CRE-luciferase activity of WB403 and ZY403. […] (D) Effect of WB403 and ZY403 on gallbladders of mice. Normal mice were fasted overnight and treated with compounds (200 mg/kg) or vehicle (DMSO) by ip injection. Gallbladders (GB) were removed 30 min later and volumes measured then normalized to body weight (B.W.). n = 10. **p<0.01 vs. vehicle group. (E) Structure of WB403 and ZY403. WB403 promoted GLP-1 secretion in NCI-H716 cells (F), primary enterocytes (G), and MIN6 cells (H). n = 3. *p<0.05, **p<0.01, ***p<0.001 vs. vehicle group. (I) WB403 promoted GLP-1 in ICR mice. n = 5. **p<0.01 vs. vehicle group. Values represent mean ± SEM.

gallbladders of mice = assay: gallbladder filling in normal mice; format: in vivo; conditions: 200 mg/kg ip, normal mice fasted overnight, gallbladders removed 30 min later, n = 10
Text: as §1

NCI-H716 cells = assay: active GLP-1 secretion in NCI-H716 cells; format: cell-based, human; conditions: 10 μmol/l, 30 min
Experimental: Endocrine differentiation was induced by seeding NCI-H716 cells in plates coated with Matrigel (Becton Dickinson). Cells were washed with RPMI-1640 medium without FBS and incubated in the same medium containing indicated compounds at 10 μmol/l. The condition medium was collected after 30 min. GLP-1 secretion in MIN6 or primary enterocytes was conducted similarly. To isolate primary enterocytes, ileum or colon was cut into 2 cm length, rinsed by PBS (pH7.2∼7.4) before dispersed in 10 mmol/l EDTA/PBS (pH7.4) for 15 min at room temperature, followed by pipetting up and down. Enterocytes were collected by filtration through a 70 μm cell strainer. To study the effect of WB403 on GLP-1 secretion in vivo, mice in group of three were fasted overnight and orally received 0, 50, 100 mg/kg of WB403 dispersed in 0.5% CMC with a DPP-4 inhibitor (5 mg/kg). There were 5 animals in each group. 2 g/kg glucose was administrated 30 min later and blood was collected 10 min after glucose challenge.
The GLP-1 (active) ELISA kit was purchased from Millipore, and insulin ELISA kit was from Mercodia. For quantitative determination of cAMP, a competitive enzyme immunoassay kit from R&D system was used. All immunoassays were performed according to manufacturers’ instructions.

TGR5 = conditions: moderate bile acids; ref [22], [34]; cited from earlier work
db/db mice = assay: pancreas histology (H&E, IHC) of treated db/db mice; format: in vivo
Experimental: Analysis of islet cell mass was performed using conventional methods. In brief, mice were sacrificed by cervical dislocation. The body part of the pancreas was rapidly excised, fixed in 10% neutral buffered formalin solution for 24 h and embedded in paraffin, then sectioned at 5 μm ready for hematoxylin and eosin (H&E) staining and immunohistochemistry staining (IHC). The latter was carried out using rabbit anti-insulin polyclonal antibody (Cat. no. 4590, 1:600) and rabbit anti-glucagon monoclonal antibody (Cat. no. 8233s, 1:200) from Cell Signaling Technology.
Fig 5 WB403 preserved the mass of pancreatic β-cells and normal distribution of α and β-cells. (A) H&E staining of pancreas from db/db mice, and statistical result. Islets were sized by the Image J analysis software on alternated pancreatic sections spaced each by 100 μm. (B) Immunohistochemical analysis of pancreatic sections by anti-insulin antibody or anti-glucagon antibody. (C) H&E staining of pancreas from HFD/STZ mice, and statistical result. Results are representative islets from each group. 1–5 in the column graph on the right represents normal mice, diabetic mice treated with vehicle, WB403 50 mg/kg, WB403 100 mg/kg, sitagliptin 100 mg/kg respectively (n = 5). *p<0.05, **p<0.01, ***p<0.001 vs. diabetes-vehicle group.

SMILES: CCc1cc(-c2nc(CCOCc3ccc(Br)cc3)cs2)ccn1 [ZY403]
- EC50 (hTGR5; CRE-luciferase, 293T cells, Fig 1C, read-out: EC50, hTGR5 targeted CRE-luciferase activity): 1.3 µM
- TGR5 luciferase activity in primary screen (fold increase compared to DMSO control) (hTGR5; screen of 100 compounds, S1 Fig): highest luciferase activity
- gallbladder filling (gallbladders of mice): caused gallbladder filling
- GLP-1 stimulation in NCI-H716 cells (NCI-H716 cells): did not show a strong stimulation for GLP-1 activity

SMILES: C[C@H](CCC(=O)O)[C@H]1CC[C@H]2[C@@H]3[C@H](O)C[C@@H]4C[C@H](O)CC[C@]4(C)[C@H]3C[C@H](O)[C@]12C [CA, cholicacid]
- EC50 (TGR5): 7.72 µM

SMILES: N[C@@H](CC(=O)N1CCn2c(nnc2C(F)(F)F)C1)Cc1cc(F)c(F)cc1F [sitagliptin, sitagliptin phosphate, reference compound]
- islet area vs vehicle (db/db mice; H&E, after 4-week treatment): bigger islet area as compared to the vehicle mice, though no significant difference was found
- α-cell and β-cell distribution in islets (db/db mice; IHC anti-insulin / anti-glucagon): significantly reduced α-cell in the islet core area and restored the normal cell distribution pattern
